We go through 36 compounds from patent US9790169B2, “IDO inhibitors” (BRISTOL-MYERS SQUIBB COMPANY, priority 2015, dated 2017).

A value given as a limit tells only on which side of the number the result lay.

Chain of human IDO1 (P14902 whole entry): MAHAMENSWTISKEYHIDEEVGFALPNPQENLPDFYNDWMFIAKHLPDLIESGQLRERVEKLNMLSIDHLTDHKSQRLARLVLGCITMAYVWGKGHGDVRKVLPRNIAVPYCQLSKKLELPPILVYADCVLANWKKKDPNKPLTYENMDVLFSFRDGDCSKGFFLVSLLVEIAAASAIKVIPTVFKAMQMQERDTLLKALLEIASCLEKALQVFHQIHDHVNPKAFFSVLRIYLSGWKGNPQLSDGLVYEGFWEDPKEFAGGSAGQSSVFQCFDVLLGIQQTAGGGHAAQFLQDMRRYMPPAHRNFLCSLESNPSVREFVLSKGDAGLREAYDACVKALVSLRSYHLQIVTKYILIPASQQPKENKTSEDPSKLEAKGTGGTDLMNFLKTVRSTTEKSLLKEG

The target of the test is human IDO1 (Homo sapiens, UniProt P14902). The experiment in a line: Assessment of human IDO-1 inhibitory activity in HEK cells (human IDO1/HEK293 cells, kynurenine read-out with Ehrlich reagent, absorbance 490 nm). In kind it is cell-based. Details: expressed in transfected cells. Particulars: HEK Human IDO-1 cellular assay. An outline of the steps:
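Kynurenine output from stably IDO1-transfected HEK293 cells (10,000/well, phenol red-free RPMI, 10% FBS) after 20 h compound exposure at 37 °C. The reaction was stopped with 0.2% TCA and heated 30 min at 50 °C, then the supernatant was mixed with Ehrlich reagent and read at 490 nm. IC50 was set against DMSO and a 500 nM reference standard as 0 and 100% inhibition.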
On to `Cc1nc2ccc(Nc3cc(C(CC(=O)O)c4ccccc4)cc(F)c3N(CC(C)C)CC(C)C)cc2s1` (single isomer, unassigned) [Example 130, 3-(4-(Diisobutylamino)-3-fluoro-5-((2-methylbenzo[d]thiazol-6-yl)amino)phenyl)-3-phenylpropanoic acid], for which the IC50 was > 50 nM.
As for `CC[C@H](CC(=O)O)c1ccc(N(CC(C)(C)O)C2CCCCC2)c(Nc2ccc(C#N)cc2)c1` (single isomer, unassigned) [Example 238], the figure is < 5 nM.
With `COCCC(CC(=O)O)c1ccc(N(CC(C)C)C2CCCCC2)c(NC(=O)Nc2ccc(C)cc2)c1` (racemic) [Example 1003, (+/−)-3-(4-(Cyclohexyl(isobutyl)amino)-3-(3-(p-tolyl)ureido)phenyl)-5-methoxypentanoic acid] the figure was < 5 nM; with `CCC(CC(=O)O)c1ccc(N(CC(C)C)C2CCCCC2)c(Nc2ccc(F)cc2)c1` (single isomer, unassigned) [Example 311, 3-(4-(cyclohexyl(isobutyl)amino)-3-((4-fluorophenyl)amino)phenyl)pentanoic acid], < 5 nM.
As for `CCC(CC(=O)O)c1cc(F)c(N(CC(C)C)CC(C)C)c(NC(=O)Cc2ccc(F)cc2F)c1` (single isomer, unassigned) [Example 1093 E1], the figure is < 5 nM; as for `CCCN(c1ccc([C@@H](COC)CC(=O)O)cc1Nc1ccc(F)cc1)C1CCOCC1` (single isomer, unassigned) [Example 562], < 5 nM.
As to `CCOc1ncc(Nc2cc([C@H](CC)CC(=O)NS(C)(=O)=O)ccc2N(CC)C2CCOCC2)cn1` [Example 1078, 3-(3-((2-Ethoxypyrimidin-5-yl)amino)-4-(ethyl(tetrahydro-2H-pyran-4-yl)amino)phenyl)-N-(methylsulfonyl)pentanamide], the IC50 is < 50 nM.
Take `CCC(CC(=O)O)c1cc(NC(=O)Nc2cnc(OC)nc2)c(N(CC(C)C)CC(C)C)cc1F` (single isomer, unassigned) [Example 1141, 3-(4-(Diisobutylamino)-2-fluoro-5-(3-(2-methoxypyrimidin-5-yl)ureido)phenyl)pentanoic acid]: the concentration for half-maximal inhibition (IC50) was < 5 nM.
As for `CCC(CC(=O)O)c1ccc(N2CCC[C@H]2C(C)(C)O)c(Nc2ccc3c(c2)OC(F)(F)O3)c1` (single isomer, unassigned) [Example 837], the figure is > 50 nM; as for `CC[C@@H](CC(=O)O)c1ccc(N(CC)C2CCOCC2)c(Nc2ccc(OC)nc2)c1` (single isomer, unassigned) [Example 478], < 5 nM; as for `CC[C@H](CC(=O)O)c1ccc(N(CC)C2CCOCC2)c(Nc2ccc(Cl)cc2)c1` (single isomer, unassigned) [Example 499], < 5 nM.
As for `CCC(CC(=O)O)c1ccc(N(CC(C)C)CC(C)C)c(NC(=O)Cc2ccc(C)cc2)c1` (racemic) [Example 949, (+/−)-3-(4-(Diisobutylamino)-3-(2-(p-tolyl)acetamido)phenyl)pentanoic acid], the figure is < 5 nM; as for `CCOc1ccc(NC(=O)Nc2cc(C(COC)CC(=O)O)ccc2N(CC(C)C)C2CCOCC2)cc1` (single isomer, unassigned) [Example 1212, 3-(3-(3-(4-Ethoxyphenyl)ureido)-4-(isobutyl(tetrahydro-2H-pyran-4-yl)amino)phenyl)-4-methoxybutanoic acid], > 50 nM.
Consider `CC[C@@H](CC(=O)O)c1ccc(N2CCOC[C@@H]2C(C)C)c(NC(=O)Nc2ccc(OC)cc2F)c1` (single isomer, unassigned) [Example 76], for which the IC50 is > 50 nM.
With `COCC(CC(=O)O)c1cc(F)c(N(CC(C)C)CC(C)C)c(NC(=O)Nc2ccc(C)cc2)c1` (single isomer, unassigned) [Example 1186, 3-(4-(Diisobutylamino)-3-fluoro-5-(3-(p-tolyl)ureido)phenyl)-4-methoxybutanoic acid], the IC50 was < 5 nM.
With `CCCN(CC1CC1)c1ccc(C(CC)CC(=O)O)cc1Nc1ccc(Cl)cc1` (single isomer, unassigned) [Example 656 E1, 3-(3-((4-Chlorophenyl)amino)-4-((cyclopropylmethyl)(propyl)amino)phenyl)pentanoic acid] the figure was < 5 nM; with `CCOc1ccc(NC(=O)Nc2cc([C@H](CC)CC(=O)O)ccc2N(CC)C2CCOCC2)cc1` (single isomer, unassigned) [Example 528], < 50 nM.
Turning to `CC[C@@H](CC(=O)O)c1ccc(N(CC(C)(C)O)C2CCCCC2)c(Nc2ccc(Cl)cc2)c1` (single isomer, unassigned) [Example 231], the IC50 is < 5 nM.
With `CC(C)(CC(=O)O)c1ccc(N2CCC[C@H]2C(C)(C)O)c(Nc2ccc(C#N)cc2)c1` [Example 809, (S)-3-(3-((4-cyanophenyl)amino)-4-(2-(2-hydroxypropan-2-yl)pyrrolidin-1-yl)phenyl)-3-methylbutanoic acid] the figure was < 50 nM; with `CC[C@H](CC(=O)O)c1ccc(N(CC)C2CCOCC2)c(Nc2ccc3nncn3c2)c1` (single isomer, unassigned) [Example 512], > 50 nM; with `CCC(CC(=O)O)c1cc(F)c(N(CC(C)C)CC(C)C)c(NC(=O)Nc2cc(C(F)(F)F)ccc2F)c1` (racemic) [Example 976, (+/−)-3-(4-(diisobutylamino)-3-fluoro-5-(3-(2-fluoro-5-(trifluoromethyl)phenyl)ureido)phenyl)pentanoic acid], < 50 nM.
With `CCC(CC(=O)O)c1cc(NC(=O)Nc2ccc3c(c2)OCO3)c(N(CC(C)C)C2CCCCC2)cc1F` (single isomer, unassigned) [Example 1111, 3-(5-(3-(Benzo[d][1,3]dioxol-5-yl)ureido)-4-(cyclohexyl(isobutyl)amino)-2-fluorophenyl)pentanoic acid] the figure was < 5 nM; with `CC[C@@H](CC(=O)O)c1ccc(N(CC(C)C)C2CCS(=O)(=O)CC2)c(Nc2ccc3c(c2)OC(F)(F)O3)c1` (single isomer, unassigned) [Example 220], < 5 nM; with `CCC(CC(=O)O)c1cc(NC(=O)Nc2cncnc2)c(N(CC(C)C)C2CCCCC2)cc1F` (racemic) [Example 1122, (±)-3-(4-(cyclohexyl(isobutyl)amino)-2-fluoro-5-(3-(pyrimidin-5-yl)ureido)phenyl)pentanoic acid], < 5 nM.
With `CCCN(CC1CC1)c1ccc(C(CC)CC(=O)O)cc1Nc1ccc2c(c1)OC(F)(F)O2` (single isomer, unassigned) [Example 659, 3-(4-((cyclopropylmethyl) (propyl)amino)-3-((2,2-difluorobenzo[d][1,3]dioxol-5-yl)amino)phenyl)pentanoic acid] the figure was < 50 nM; with `CCCN(c1ccc([C@@H](CC)CC(=O)O)cc1Nc1cnc(OC)nc1)C1CCOCC1` (single isomer, unassigned) [Example 540], < 5 nM.
On to `CCC(CC(=O)O)c1ccc(N2CCC[C@H]2C(C)(C)O)c(Nc2ccc(C#N)cc2)c1` (single isomer, unassigned) [Example 825], for which the IC50 is < 50 nM.
For `CCC(CC(=O)O)c1ccc(N(CC(C)C)C2CCCCC2)c(NC(=O)Cc2cc(F)ccc2F)c1` (single isomer, unassigned) [Example 1098 E2], the IC50 was < 5 nM.
With `COCC(CC(=O)O)c1ccc(N(CC2CC2)C2CCOCC2)c(NC(=O)Nc2ccc(C)cc2)c1` (single isomer, unassigned) [Example 676, 3-(4-((Cyclopropylmethyl)(tetrahydro-2H-pyran-4-yl)amino)-3-(3-(p-tolyl)ureido)phenyl)-4-methoxybutanoic acid] the figure was > 50 nM; with `CCN(c1ccc(C(C)CC(=O)O)cc1Nc1ccc(Cl)cc1)C1CCOCC1` (single isomer, unassigned) [Example 612 E1, 3-(3-((4-Chlorophenyl)amino)-4-(ethyl(tetrahydro-2H-pyran-4-yl)amino)phenyl)butanoic acid], < 5 nM; with `CCOc1ccc(NC(=O)Nc2cc(C(CC)CC(=O)O)c(F)cc2N(CC(C)C)C2CCCCC2)cc1` (single isomer, unassigned) [Example 1108, 3-(4-(Cyclohexyl(isobutyl)amino)-5-(3-(4-ethoxyphenyl)ureido)-2-fluorophenyl)pentanoic acid], < 5 nM.
With `COCC(CC(=O)O)c1cc(F)c(N(CC(C)C)CC(C)C)c(NC(=O)Nc2cncnc2)c1` (single isomer, unassigned) [Example 1183, 3-(4-(Diisobutylamino)-3-fluoro-5-(3-(pyrimidin-5-yl)ureido)phenyl)-4-methoxybutanoic acid] the figure was < 50 nM; with `COCC(CC(=O)O)c1ccc(N(CC(C)C)C2CCCCC2)c(NC(=O)Nc2ccc(OC)cc2F)c1` (single isomer, unassigned) [Example 1233, 3-(4-(Cyclohexyl(isobutyl)amino)-3-(3-(2-fluoro-4-methoxyphenyl)ureido)phenyl)-4-methoxybutanoic acid], < 5 nM.
Take `CCOc1ccc(NC(=O)Nc2cc(C(CC)CC(=O)O)c(F)cc2N(CC(C)C)CC(C)C)c(F)c1` (racemic) [Example 1137, (±)-3-(4-(Diisobutylamino)-5-(3-(4-ethoxy-2-fluorophenyl)ureido)-2-fluorophenyl)pentanoic acid]: the concentration for half-maximal inhibition (IC50) is < 5 nM.
Consider `CCOc1ccc(NC(=O)Nc2cc(C(CC)CC(=O)O)c(F)cc2N(CC(C)C)C2CCCCC2)c(F)c1` (single isomer, unassigned) [Example 1117, 3-(4-(Cyclohexyl(isobutyl)amino)-5-(3-(4-ethoxy-2-fluorophenyl)ureido)-2-fluorophenyl)pentanoic acid], for which the IC50 was < 5 nM.
As for `CC[C@H](CC(=O)O)c1ccc(N(CC)C2CCOCC2)c(Nc2ccc(C#N)cc2)c1` (single isomer, unassigned) [Example 501], the figure is < 5 nM.
